These results are taken from patent publication US6369225B1, “Compounds having activity as inhibitors of cytochrome P450RAI” (Allergan Sales, Inc., priority 2000, dated 2002).

The target in one data set is T1, P450RAI-1 (Homo sapiens, UniProt O43174).
T1 construct: expressed in transfected cells; host or cells: HeLa cells, stably transfected, hygromycin selection
T1 sequence (O43174 1-497): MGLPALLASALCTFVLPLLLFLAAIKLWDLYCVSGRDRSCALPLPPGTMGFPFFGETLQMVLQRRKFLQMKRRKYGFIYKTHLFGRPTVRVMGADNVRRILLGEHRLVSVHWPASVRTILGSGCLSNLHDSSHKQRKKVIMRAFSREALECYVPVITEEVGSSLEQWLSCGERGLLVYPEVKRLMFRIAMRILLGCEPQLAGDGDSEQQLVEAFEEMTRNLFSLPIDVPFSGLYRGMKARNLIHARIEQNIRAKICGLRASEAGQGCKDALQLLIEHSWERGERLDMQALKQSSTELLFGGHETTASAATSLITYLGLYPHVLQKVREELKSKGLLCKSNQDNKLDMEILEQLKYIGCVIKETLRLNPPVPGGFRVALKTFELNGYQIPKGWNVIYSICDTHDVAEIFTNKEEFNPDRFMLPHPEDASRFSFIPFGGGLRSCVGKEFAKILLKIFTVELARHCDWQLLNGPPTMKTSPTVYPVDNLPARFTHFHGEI
Put plainly: P450RAI-1 cell-based inhibitor assay. The conditions noted are these: P450RAI-1 stably transfected HeLa cells, [3H]-RA metabolism, 3 hours at 37° C.; read-out: P450RAI INHIBITION DATA INTACT HELA IC50. Here is the method:
P450RAI-1 stably transfected HeLa cells are maintained in […] tissue culture dishes in Modified Eagle's Medium (MEM) containing 10% Fetal Bovine Serum (FBS) and 100 μg/ml hygromycin. Exponentially growing cells are harvested by incubating in trypsin. Cells are then washed with 1× Phosphate Buffered Saline (PBS) and plated in a 48-well plate at 5×10^5 cells in 0.2 ml MEM medium containing 10% FBS and 0.05 μCi[^3H]-RA in the presence or absence of increasing concentrations of the test compounds. The compounds are diluted in 100% DMSO and then added in triplicate wells at either 10, 1 or 0.1 μM final concentration. As a positive control for RA metabolism inhibition, cells are also incubated with ketoconazole at 100, 10 and 1 μM. Cell are incubated for 3 hours at 37° C. […] The water soluble radioactivity is quantified using a β-scintillation counter. IC50 values represent the concentration of inhibitor required to inhibit all-trans-RA metabolism by 50 percent and are derived manually from log-transformed data.

The test system of another data set is skin of hairless mice. In words: topical skin irritation test in hairless mice. Type of data set: in vivo, mouse. The settings on record: topical in acetone, once daily days 1 through 5, mean ±SD, range 0-21. The text has this:
Mice were housed individually throughout the dosing period.
Doses are disclosed as nmol/25 g.
The grading scale used is as follows:
Values can range from 0-9.
Values can range from 0-8.

In another data set the target is T2, RARβ (Homo sapiens, UniProt P10826).
T2 sequence (P10826 1-455): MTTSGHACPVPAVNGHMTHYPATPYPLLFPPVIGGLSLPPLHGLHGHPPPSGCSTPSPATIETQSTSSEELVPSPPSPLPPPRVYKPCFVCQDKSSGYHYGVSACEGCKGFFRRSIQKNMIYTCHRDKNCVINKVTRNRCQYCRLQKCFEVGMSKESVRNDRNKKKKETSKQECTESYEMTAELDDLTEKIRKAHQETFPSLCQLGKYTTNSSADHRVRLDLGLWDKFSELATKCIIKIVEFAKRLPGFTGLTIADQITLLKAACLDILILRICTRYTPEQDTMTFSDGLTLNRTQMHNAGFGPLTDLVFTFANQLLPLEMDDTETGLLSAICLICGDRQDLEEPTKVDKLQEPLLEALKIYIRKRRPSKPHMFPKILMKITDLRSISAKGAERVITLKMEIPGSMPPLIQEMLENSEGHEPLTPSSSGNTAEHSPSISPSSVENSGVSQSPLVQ
In words: ligand binding assay, RARβ. The settings on record: Kd line of EC50/(EFFICACY)/Kd, read-out: RAR Kd β. An excerpt: (§1) Assays described below measure the ability of a compound to bind to, and/or activate various retinoid receptor subtypes. When in these assays a compound binds to a given receptor subtype and activates the transcription of a reporter gene through that subtype, then the compound is considered an agonist of that receptor subtype. […] In the below described assays the ability of the compounds to bind to RARα, RARβ, RARγ, RXRα, RXRβ and RXRγ receptors, and the ability or inability of the compounds to activate transcription of a reporter gene through these receptor subtypes can be tested.
A holoreceptor transactivation assay and a ligand binding assay which measure the antagonist/agonist like activity of the compounds of the invention, or their ability to bind to the several retinoid receptor subtypes, respectively, are described in published PCT Application No. WO WO93/11755 (particularly on pages 30-33 and 37-41) published on Jun. 24, 1993, the specification of which is also incorporated herein by reference. […] The results obtained in this assay are expressed in EC50 numbers, as they are also in the chimeric receptor transactivation assay. The results of ligand binding assay are expressed in Kd numbers. (See Cheng et al. Biochemical Pharmacology Vol. 22 pp 3099-3108, expressly incorporated herein by reference.)

The target of the next data set is T3, RARγ (Homo sapiens, UniProt P13631).
T3 sequence (P13631 1-454): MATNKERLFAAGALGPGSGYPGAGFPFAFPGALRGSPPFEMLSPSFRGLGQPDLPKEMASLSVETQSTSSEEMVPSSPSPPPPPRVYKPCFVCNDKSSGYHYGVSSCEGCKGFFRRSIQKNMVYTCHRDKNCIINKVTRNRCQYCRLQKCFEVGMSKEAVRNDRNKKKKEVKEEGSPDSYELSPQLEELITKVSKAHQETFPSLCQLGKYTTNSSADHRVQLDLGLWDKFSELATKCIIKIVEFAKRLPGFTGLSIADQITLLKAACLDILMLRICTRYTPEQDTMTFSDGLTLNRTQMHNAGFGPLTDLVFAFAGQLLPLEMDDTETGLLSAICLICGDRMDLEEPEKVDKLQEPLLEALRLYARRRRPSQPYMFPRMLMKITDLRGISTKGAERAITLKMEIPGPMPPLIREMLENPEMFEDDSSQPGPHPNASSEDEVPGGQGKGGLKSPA
In words: ligand binding assay, RARγ. The settings on record: Kd line of EC50/(EFFICACY)/Kd, read-out: RAR Kd γ.
Text: as §1
A holoreceptor transactivation assay and a ligand binding assay which measure the antagonist/agonist like activity of the compounds of the invention, or their ability to bind to the several retinoid receptor subtypes, respectively, are described in published PCT Application No. WO WO93/11755 (particularly on pages 30-33 and 37-41) published on Jun. 24, 1993, the specification of which is also incorporated herein by reference. A detailed experimental procedure for holoreceptor transactivations has been described by Heyman et al. Cell 68, 397-406, (1992); Allegretto et al. J. Biol. Chem. 268, 26625-26633, and Mangelsdorf et al. The Retinoids: Biology, Chemistry and Medicine, pp 319-349, Raven Press Ltd., New York, which are expressly incorporated herein by reference. The results obtained in this assay are expressed in EC50 numbers, as they are also in the chimeric receptor transactivation assay. The results of ligand binding assay are expressed in Kd numbers. (See Cheng et al. Biochemical Pharmacology Vol. 22 pp 3099-3108, expressly incorporated herein by reference.)
The results if the ligand binding assay for several preferred compounds of the invention are included in Table 1.

pIC50, pKd: −log10 of the molar value.

With `CC1(C)CC(C)(C)c2cc(C#Cc3ccc(CC(=O)O)c(F)c3)cc(C3CC3)c2O1` [Compound 38, [4-(8-Cyclopropyl-2,2,4,4-tetramethyl-chroman-6-yl-ethynyl)-2-fluorophenyl]acetic Acid], the pIC50 (in general, −log10 of the IC50, conventionally taken in molar units) at P450RAI-1 was 7.60. Besides, the “Cutaneous Toxicity Score (Blackjack Score)” value (shortened to “Cutaneous Toxicity Score”) is on record as 1 ± 1 in the data set on skin of hairless mice (100 nmole (nmol/25 g)) and 10 ± 1 in the data set with skin of hairless mice (1000 nmole (nmol/25 g)). Also, the pKd (commonly −log10 of the Kd, conventionally taken in molar units) on RARβ was 5.27; at RARγ, 5.54.
For `CC1(C)CC2(CC2)Oc2c(C3CC3)cc(C(=O)Oc3ccc(CC(=O)O)cc3)cc21` [Compound 58, Spiro[2H-1-benzopyran-2,1′-cyclopropane]-6-carboxylic Acid, 8-cyclopropyl-3,4-dihydro-4,4-dimethyl-, 4-(carboxymethyl)phenyl Ester], on P450RAI-1, the pIC50 was 6.74. Also, the “Cutaneous Toxicity Score” value in the data set on skin of hairless mice (100 nmole (nmol/25 g)), in the data set with skin of hairless mice (300 nmole (nmol/25 g)) and in the data set on skin of hairless mice (1000 nmole (nmol/25 g)) was 0 ± 0 each time.
Regarding `CC1(C)CC2(CC2)Oc2c(C3CC3)cc(C#Cc3ccc(CC(=O)O)c(F)c3)cc21` [Compound 50, 4-[(8-Cyclopropyl-3,4-dihydro-4,4-dimethylspiro[2H-1-benzopyran-2,1′-cyclopropane]-6-yl)ethynyl]-2-fluoro-benzeneacetic Acid], the pIC50 at P450RAI-1 was 7.85. The “Cutaneous Toxicity Score” value stood at 1 ± 0 in the data set with skin of hairless mice (100 nmole (nmol/25 g)), 3 ± 2 with skin of hairless mice (300 nmole (nmol/25 g)) and 8 ± 2 in the data set with skin of hairless mice (1000 nmole (nmol/25 g)).
For `CC1(C)CC2(CC2)Oc2c(C3CC3)cc(C#Cc3ccc(CC(=O)O)cc3)cc21` [Compound 48, Benzeneacetic Acid, 4-[(8-cyclopropyl-3,4-dihydro-4,4-dimethylspiro[2H-1-benzopyran-2,1′-cyclopropane]-6-yl)ethynyl]-] the same measures were 7.52, 1 ± 1, 3 ± 1 and 7 ± 2.
The corresponding values for `CN(C1CC1)C1CCC(C)(C)c2cc(C#Cc3ccc(CC(=O)O)c(F)c3)ccc21` (stereo not shown) [Compound 18, [4-(5-(Cyclopropyl-methyl-amino)-8,8-dimethyl-5,6,7,8-tetrahydro-naphthalene-2-yl-ethynyl)-2-fluoro-phenyl]-acetic Acid] are 5.96, 0 ± 0, 5 ± 2 and 10 ± 2.
The corresponding values for `CC1(C)CCC(n2ccnc2)c2ccc(C#Cc3ccc(CC(=O)O)cc3)cc21` (stereo not shown) [Compound 137, [4-(5-Imidazol-1-yl-8,8-dimethyl-5,6,7,8-tetrahydro-naphthalen-2-yl-ethynyl)-phenyl]-acetic Acid] are 7.00, 1 ± 1, 1 ± 1 and 5 ± 2.
As for `CC1(C)CCC(=O)c2ccc(C#Cc3ccc(CC(=O)O)c(F)c3)cc21` [Compound 15, [2-Fluoro-4-(8,8-dimethyl-5-oxo-5,6,7,8-tetrahydro-naphthalene-2-yl-ethynyl)phenyl]-acetic Acid], the “Cutaneous Toxicity Score” value with skin of hairless mice (100 nmole (nmol/25 g)) is on record as 1 ± 1; in the data set with skin of hairless mice (1000 nmole (nmol/25 g)), 5 ± 2.
`CC1(C)CN(C2CC2)Cc2ccc(C#Cc3ccc(CC(=O)O)c(F)c3)cc21` [Compound 22, [4-(2-Cyclopropyl-4,4-dimethyl-1,2,3,4-tetrahydro-isoquinoline-6-yl-ethynyl)-2-fluoro-phenyl]-acetic Acid]: the pIC50 on P450RAI-1 is 5.80. Besides, the “Cutaneous Toxicity Score” value in the data set on skin of hairless mice (100 nmole (nmol/25 g)) stood at 0 ± 0; in the data set with skin of hairless mice (300 nmole (nmol/25 g)) it was 0 ± 0; in the data set on skin of hairless mice (1000 nmole (nmol/25 g)) it was 1 ± 1.
